# Test results taken from patent US20020137929A1, “1 - (3-heterocyclylphenyl) isothiourea, -isourea, -guanidine and -amidine herbicidal agents” (Intellectual Property Department, BASF Aktiengesellschaft, priority 1998, published 2002).
# Columns and labels:
# [1] = tested on: ABUTH (Velvetleaf); experiment: Postemergence herbicidal evaluation; assay type: in vivo, Abutilon theophrasti; details: postemergence
# Procedure, shortened: (§1)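 ~2-wk seedlings; postemergence spray, 40 psi; vehicle 1:1 acetone:water + 0.5% Tween 20; rate ≈0.0156–0.500 kg/ha; greenhouse hold; scored 4–5 wk after treatment, 0–9 scale vs control; repeat tests averaged.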
# [2] = tested on: CHEAL (Lambsquarters, Common); experiment: Postemergence herbicidal evaluation; assay type: in vivo, Chenopodium album; details: postemergence
# Procedure, shortened: as §1
# [3] = tested on: IPOHE (Morningglory, Ivyleaf); experiment: Postemergence herbicidal evaluation; assay type: in vivo, Ipomoea hederacea; details: postemergence
# Procedure, shortened: as §1
# [4] = tested on: ECHCG (Barnyardgrass); experiment: Postemergence herbicidal evaluation; assay type: in vivo, Echinochloa crus-galli; details: postemergence
# Procedure, shortened: as §1
# [5] = tested on: SETVI (Foxtail, Green); experiment: Postemergence herbicidal evaluation; assay type: in vivo, Setaria viridis; details: postemergence
# Procedure, shortened: as §1
# [6] = tested on: ORYSAT (Rice, Tebonnet); experiment: Postemergence herbicidal evaluation; assay type: in vivo, Oryza sativa, (L.) Tebonnet; details: postemergence
# Procedure, shortened: as §1
# [7] = tested on: ZEAMX (Corn, Field); experiment: Postemergence herbicidal evaluation; assay type: in vivo, Zea mays; details: postemergence
# Procedure, shortened: as §1
# [8] = tested on: ABUTH (Velvetleaf); experiment: Preemergence herbicidal evaluation; assay type: in vivo, Abutilon theophrasti; details: rated 4-5 weeks after treatment
# Procedure, shortened: (§2)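 Sown cups got a single aqueous acetone spray of test compound (roughly 0.0156–0.500 kg/ha) before seedlings emerged. Evaluation, 4–5 weeks on, used a 0–9 visual scale covering plant stand, vigor, size, malformation, chlorosis and general appearance compared with controls.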
# [9] = tested on: CASOB (Sicklepod); experiment: Preemergence herbicidal evaluation; assay type: in vivo, Cassia obtusifolia; details: rated 4-5 weeks after treatment
# Procedure, shortened: as §2
# [10] = tested on: CHEAL (Lambsquarters, Common); experiment: Preemergence herbicidal evaluation; assay type: in vivo, Chenopodium album; details: rated 4-5 weeks after treatment
# Procedure, shortened: as §2
# [11] = tested on: IPOHE (Morningglory, Ivyleaf); experiment: Preemergence herbicidal evaluation; assay type: in vivo, Ipomoea hederacea; details: rated 4-5 weeks after treatment
# Procedure, shortened: as §2
# [12] = tested on: ECHCG (Barnyardgrass); experiment: Preemergence herbicidal evaluation; assay type: in vivo, Echinochloa crus-galli; details: rated 4-5 weeks after treatment
# Procedure, shortened: as §2
# [13] = tested on: GLXMAW (Soybean, Williams); experiment: Preemergence herbicidal evaluation; assay type: in vivo, Glycine max, (L.) Merr. cv Williams; details: rated 4-5 weeks after treatment
# Procedure, shortened: as §2
# [14] = tested on: TRZAWR (Wheat, Winter, cv Riband); experiment: Preemergence herbicidal evaluation; assay type: in vivo, Triticum aestivum; details: rated 4-5 weeks after treatment
# Procedure, shortened: as §2
# [15] = tested on: ZEAMX (Corn, Field); experiment: Preemergence herbicidal evaluation; assay type: in vivo, Zea mays; details: rated 4-5 weeks after treatment
# Procedure, shortened: as §2
# [16] = tested on: CYPIR (Rice Flatsedge); experiment: Postemergence weed control under flooded paddy conditions; assay type: in vivo, Cyperus iria; details: postemergence weeds, 3-4 weeks after treatment
# Procedure, shortened: (§3)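 Injury ratings (0–9 scale covering stand, vigor, malformation, size, chlorosis and overall appearance versus control) were made three to four weeks after treatment. Test material, about 0.0313 to 0.500 kg/ha a.i. in 50/50 v/v aqueous/acetone, was added to flood water 1.5 to 3 cm deep over 3 to 5 cm weeds and 1.5 to 2.5 leaf rice.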
# [17] = tested on: CYPSE (Flatsedge); experiment: as above; assay type: in vivo, Cyperus serotinus; details: postemergence weeds, 3-4 weeks after treatment
# Procedure, shortened: as §3
structure (smiles),measurement,setting,value
"COC(=O)CN1C(=O)CSC1=Nc1cc(-n2c(=O)cc(C(F)(F)F)n(C)c2=O)c(F)cc1Cl [Compound 17, Methyl 2-{{2-chloro-5-[3,6-dihydro-3-methyl-2,6-dioxo-4-(trifluoromethyl)-1(2H)-pyrimidinyl]-4-fluorophenyl}imino}-4-oxo-3-thiazolidineacetate]",ABUTH herbicidal rating,[1]; rate 0.0156 kg/ha,9.0
same,ABUTH herbicidal rating,[1]; rate 0.0313 kg/ha,9.0
same,ABUTH herbicidal rating,[1]; rate 0.0625 kg/ha,9.0
same,ABUTH herbicidal rating,[1]; rate 0.1250 kg/ha,9.0
same,CHEAL herbicidal rating,[2]; rate 0.0156 kg/ha,2.5
same,CHEAL herbicidal rating,[2]; rate 0.0313 kg/ha,3.0
same,CHEAL herbicidal rating,[2]; rate 0.0625 kg/ha,4.0
same,CHEAL herbicidal rating,[2]; rate 0.1250 kg/ha,8.0
same,IPOHE herbicidal rating,[3]; rate 0.0156 kg/ha,7.0
same,IPOHE herbicidal rating,[3]; rate 0.0313 kg/ha,8.5
same,IPOHE herbicidal rating,[3]; rate 0.0625 kg/ha,9.0
same,IPOHE herbicidal rating,[3]; rate 0.1250 kg/ha,9.0
same,ECHCG herbicidal rating,[4]; rate 0.0156 kg/ha,0.0
same,ECHCG herbicidal rating,[4]; rate 0.0313 kg/ha,0.0
same,ECHCG herbicidal rating,[4]; rate 0.0625 kg/ha,2.5
same,ECHCG herbicidal rating,[4]; rate 0.1250 kg/ha,8.0
same,SETVI herbicidal rating,[5]; rate 0.0156 kg/ha,2.0
same,SETVI herbicidal rating,[5]; rate 0.0313 kg/ha,2.5
same,SETVI herbicidal rating,[5]; rate 0.0625 kg/ha,4.0
same,SETVI herbicidal rating,[5]; rate 0.1250 kg/ha,5.5
same,ORYSAT herbicidal rating,[6]; rate 0.0156 kg/ha,1.8
same,ORYSAT herbicidal rating,[6]; rate 0.0313 kg/ha,3.0
same,ORYSAT herbicidal rating,[6]; rate 0.0625 kg/ha,3.5
same,ORYSAT herbicidal rating,[6]; rate 0.1250 kg/ha,5.0
same,ZEAMX herbicidal rating,[7]; rate 0.0156 kg/ha,7.0
same,ZEAMX herbicidal rating,[7]; rate 0.0313 kg/ha,7.3
same,ZEAMX herbicidal rating,[7]; rate 0.0625 kg/ha,7.8
same,ZEAMX herbicidal rating,[7]; rate 0.1250 kg/ha,7.8
same,ABUTH preemergence herbicidal rating,[8]; rate 0.0156 kg/ha,0.0
same,ABUTH preemergence herbicidal rating,[8]; rate 0.0313 kg/ha,4.0
same,ABUTH preemergence herbicidal rating,[8]; rate 0.0625 kg/ha,9.0
same,ABUTH preemergence herbicidal rating,[8]; rate 0.1250 kg/ha,9.0
same,ABUTH preemergence herbicidal rating,[8]; rate 0.2500 kg/ha,9.0
same,ABUTH preemergence herbicidal rating,[8]; rate 0.5000 kg/ha,9.0
same,CASOB preemergence herbicidal rating,[9]; rate 0.0156 kg/ha,0.0
same,CASOB preemergence herbicidal rating,[9]; rate 0.0313 kg/ha,0.7
same,CASOB preemergence herbicidal rating,[9]; rate 0.0625 kg/ha,0.7
same,CASOB preemergence herbicidal rating,[9]; rate 0.1250 kg/ha,0.0
same,CASOB preemergence herbicidal rating,[9]; rate 0.2500 kg/ha,3.7
same,CASOB preemergence herbicidal rating,[9]; rate 0.5000 kg/ha,7.0
same,CHEAL preemergence herbicidal rating,[10]; rate 0.0156 kg/ha,4.5
same,CHEAL preemergence herbicidal rating,[10]; rate 0.0313 kg/ha,6.0
same,CHEAL preemergence herbicidal rating,[10]; rate 0.0625 kg/ha,9.0
same,CHEAL preemergence herbicidal rating,[10]; rate 0.1250 kg/ha,9.0
same,CHEAL preemergence herbicidal rating,[10]; rate 0.2500 kg/ha,9.0
same,CHEAL preemergence herbicidal rating,[10]; rate 0.5000 kg/ha,9.0
same,IPOHE preemergence herbicidal rating,[11]; rate 0.0156 kg/ha,0.5
same,IPOHE preemergence herbicidal rating,[11]; rate 0.0313 kg/ha,0.7
same,IPOHE preemergence herbicidal rating,[11]; rate 0.0625 kg/ha,4.0
same,IPOHE preemergence herbicidal rating,[11]; rate 0.1250 kg/ha,5.7
same,IPOHE preemergence herbicidal rating,[11]; rate 0.2500 kg/ha,9.0
same,IPOHE preemergence herbicidal rating,[11]; rate 0.5000 kg/ha,9.0
same,ECHCG preemergence herbicidal rating,[12]; rate 0.0156 kg/ha,0.5
same,ECHCG preemergence herbicidal rating,[12]; rate 0.0313 kg/ha,0.7
same,ECHCG preemergence herbicidal rating,[12]; rate 0.0625 kg/ha,1.0
same,ECHCG preemergence herbicidal rating,[12]; rate 0.1250 kg/ha,0.7
same,ECHCG preemergence herbicidal rating,[12]; rate 0.2500 kg/ha,4.3
same,ECHCG preemergence herbicidal rating,[12]; rate 0.5000 kg/ha,9.0
same,GLXMAW preemergence herbicidal rating,[13]; rate 0.0156 kg/ha,0.0
same,GLXMAW preemergence herbicidal rating,[13]; rate 0.0313 kg/ha,0.0
same,GLXMAW preemergence herbicidal rating,[13]; rate 0.0625 kg/ha,0.3
same,GLXMAW preemergence herbicidal rating,[13]; rate 0.1250 kg/ha,0.3
same,GLXMAW preemergence herbicidal rating,[13]; rate 0.2500 kg/ha,3.3
same,GLXMAW preemergence herbicidal rating,[13]; rate 0.5000 kg/ha,6.5
same,TRZAWR preemergence herbicidal rating,[14]; rate 0.0156 kg/ha,0.0
same,TRZAWR preemergence herbicidal rating,[14]; rate 0.0313 kg/ha,0.0
same,TRZAWR preemergence herbicidal rating,[14]; rate 0.0625 kg/ha,0.0
same,TRZAWR preemergence herbicidal rating,[14]; rate 0.1250 kg/ha,2.0
same,TRZAWR preemergence herbicidal rating,[14]; rate 0.2500 kg/ha,7.0
same,TRZAWR preemergence herbicidal rating,[14]; rate 0.5000 kg/ha,7.0
same,ZEAMX preemergence herbicidal rating,[15]; rate 0.0156 kg/ha,0.0
same,ZEAMX preemergence herbicidal rating,[15]; rate 0.0313 kg/ha,0.3
same,ZEAMX preemergence herbicidal rating,[15]; rate 0.0625 kg/ha,1.0
same,ZEAMX preemergence herbicidal rating,[15]; rate 0.1250 kg/ha,1.0
same,ZEAMX preemergence herbicidal rating,[15]; rate 0.2500 kg/ha,3.3
same,ZEAMX preemergence herbicidal rating,[15]; rate 0.5000 kg/ha,5.5
same,Herbicidal rating CYPIR,[16]; rate 0.0313 kg/ha,0.0
same,Herbicidal rating CYPIR,[16]; rate 0.0625 kg/ha,0.0
same,Herbicidal rating CYPIR,[16]; rate 0.1250 kg/ha,6.0
same,Herbicidal rating CYPIR,[16]; rate 0.2500 kg/ha,9.0
same,Herbicidal rating CYPSE,[17]; rate 0.0313 kg/ha,9.0
same,Herbicidal rating CYPSE,[17]; rate 0.0625 kg/ha,9.0
same,Herbicidal rating CYPSE,[17]; rate 0.1250 kg/ha,9.0
same,Herbicidal rating CYPSE,[17]; rate 0.2500 kg/ha,9.0
"CCOC(=O)CN1C(=O)C(=C2CCCC2)SC1=Nc1cc(-n2c(=O)cc(C(F)(F)F)n(C)c2=O)c(F)cc1Cl [Compound 18, Ethyl 2-{{2-chloro-5-[3,6-dihydro-3-methyl-2,6-dioxo-4-(trifluoromethyl)-1(2H)-pyrimidinyl]-4-fluorophenyl}imino}-5-cyclopentylidene-4-oxo-3-thiazolidineacetate]",ABUTH herbicidal rating,[1]; rate 0.0158 kg/ha,9.0
same,ABUTH herbicidal rating,[1]; rate 0.0315 kg/ha,9.0
same,ABUTH herbicidal rating,[1]; rate 0.0630 kg/ha,9.0
same,CHEAL herbicidal rating,[2]; rate 0.0158 kg/ha,6.0
same,CHEAL herbicidal rating,[2]; rate 0.0315 kg/ha,9.0
same,CHEAL herbicidal rating,[2]; rate 0.0630 kg/ha,9.0
same,IPOHE herbicidal rating,[3]; rate 0.0158 kg/ha,2.0
same,IPOHE herbicidal rating,[3]; rate 0.0315 kg/ha,6.0
same,IPOHE herbicidal rating,[3]; rate 0.0630 kg/ha,9.0
same,ECHCG herbicidal rating,[4]; rate 0.0158 kg/ha,1.0
same,ECHCG herbicidal rating,[4]; rate 0.0315 kg/ha,1.0
same,ECHCG herbicidal rating,[4]; rate 0.0630 kg/ha,2.0
same,SETVI herbicidal rating,[5]; rate 0.0158 kg/ha,0.0
same,SETVI herbicidal rating,[5]; rate 0.0315 kg/ha,1.0
same,SETVI herbicidal rating,[5]; rate 0.0630 kg/ha,6.0
same,ORYSAT herbicidal rating,[6]; rate 0.0158 kg/ha,2.0
same,ORYSAT herbicidal rating,[6]; rate 0.0315 kg/ha,1.5
same,ORYSAT herbicidal rating,[6]; rate 0.0630 kg/ha,1.5
same,ZEAMX herbicidal rating,[7]; rate 0.0158 kg/ha,4.0
same,ZEAMX herbicidal rating,[7]; rate 0.0315 kg/ha,4.5
same,ZEAMX herbicidal rating,[7]; rate 0.0630 kg/ha,4.0
same,ABUTH preemergence herbicidal rating,[8]; rate 0.1250 kg/ha,2.0
same,ABUTH preemergence herbicidal rating,[8]; rate 0.2500 kg/ha,9.0
same,CASOB preemergence herbicidal rating,[9]; rate 0.1250 kg/ha,0.0
same,CASOB preemergence herbicidal rating,[9]; rate 0.2500 kg/ha,0.0
same,CHEAL preemergence herbicidal rating,[10]; rate 0.1250 kg/ha,8.0
same,CHEAL preemergence herbicidal rating,[10]; rate 0.2500 kg/ha,9.0
same,IPOHE preemergence herbicidal rating,[11]; rate 0.1250 kg/ha,0.0
same,IPOHE preemergence herbicidal rating,[11]; rate 0.2500 kg/ha,1.0
same,ECHCG preemergence herbicidal rating,[12]; rate 0.1250 kg/ha,0.0
same,ECHCG preemergence herbicidal rating,[12]; rate 0.2500 kg/ha,0.0
same,GLXMAW preemergence herbicidal rating,[13]; rate 0.1250 kg/ha,0.0
same,GLXMAW preemergence herbicidal rating,[13]; rate 0.2500 kg/ha,3.0
same,TRZAWR preemergence herbicidal rating,[14]; rate 0.1250 kg/ha,0.0
same,TRZAWR preemergence herbicidal rating,[14]; rate 0.2500 kg/ha,0.0
same,ZEAMX preemergence herbicidal rating,[15]; rate 0.1250 kg/ha,0.0
same,ZEAMX preemergence herbicidal rating,[15]; rate 0.2500 kg/ha,0.0
same,Herbicidal rating CYPIR,[16]; rate 0.1160 kg/ha,0.0
same,Herbicidal rating CYPIR,[16]; rate 0.2310 kg/ha,0.0
same,Herbicidal rating CYPIR,[16]; rate 0.4630 kg/ha,0.0
same,Herbicidal rating CYPSE,[17]; rate 0.1160 kg/ha,0.0
same,Herbicidal rating CYPSE,[17]; rate 0.2310 kg/ha,0.0
same,Herbicidal rating CYPSE,[17]; rate 0.4630 kg/ha,4.0
